Experimental data as given in patent publication US10711036B2, “MALT1 inhibitors and uses thereof” (Cornell University, priority 2015, dated 2020).
Where a SMILES comes first, the peptide text is derived from it. [ ]: non-standard residue; d: D form. The star is where a group is joined. Chg = N[C@H](C(=O)O)C1CCCCC1; Phg = N[C@H](C(=O)O)c1ccccc1; Tle = CC(C)(C)[C@H](N)C(=O)O; NMeV = CN[C@H](C(=O)O)C(C)C; Pip = O=C(O)[C@@H]1CCCCN1; ClZ = O=C(OCc1ccccc1Cl)*; Cbz = O=C(OCc1ccccc1)*; CH2F = FC*

What was measured:
MALT1 = MALT1 (Homo sapiens (Human), UniProt Q9UDY8); assay: Inhibition constants (Ki) for inhibition of MALT1; assay type: biochemical; conditions: 100 nM MALT1 used for the assay
MALT1, sequence (Q9UDY8 whole entry): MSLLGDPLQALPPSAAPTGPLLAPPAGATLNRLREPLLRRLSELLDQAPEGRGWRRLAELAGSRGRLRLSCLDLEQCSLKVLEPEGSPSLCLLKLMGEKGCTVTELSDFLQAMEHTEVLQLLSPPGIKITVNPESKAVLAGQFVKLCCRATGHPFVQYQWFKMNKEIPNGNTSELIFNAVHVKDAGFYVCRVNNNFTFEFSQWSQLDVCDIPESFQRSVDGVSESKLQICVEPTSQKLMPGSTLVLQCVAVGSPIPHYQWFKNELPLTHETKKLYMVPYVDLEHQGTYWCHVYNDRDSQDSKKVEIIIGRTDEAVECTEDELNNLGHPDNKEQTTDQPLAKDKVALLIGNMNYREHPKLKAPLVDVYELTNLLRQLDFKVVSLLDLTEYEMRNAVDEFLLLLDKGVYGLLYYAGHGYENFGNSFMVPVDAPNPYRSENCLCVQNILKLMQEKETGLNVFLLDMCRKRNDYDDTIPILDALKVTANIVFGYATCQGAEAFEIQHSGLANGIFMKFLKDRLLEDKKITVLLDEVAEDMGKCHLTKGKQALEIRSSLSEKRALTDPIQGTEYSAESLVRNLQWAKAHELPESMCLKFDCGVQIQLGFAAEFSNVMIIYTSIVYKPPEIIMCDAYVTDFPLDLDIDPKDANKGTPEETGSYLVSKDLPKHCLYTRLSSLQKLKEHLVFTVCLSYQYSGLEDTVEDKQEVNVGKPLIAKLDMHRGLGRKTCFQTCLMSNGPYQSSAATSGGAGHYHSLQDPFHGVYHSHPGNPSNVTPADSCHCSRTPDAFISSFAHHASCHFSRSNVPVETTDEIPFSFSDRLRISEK
Method: For exemplary compounds of the disclosure, Ki for inhibition of MALT1 was measured (Table E11). A concentration of 100 nM MALT1 was used for the assay.

OCI-LY3 = assay: Cell growth inhibition assay (CellTiter-Glo, 96 hours), OCI-LY3; assay type: cell-based, human; conditions: OCI-LY3 cells, treated at t=0 and t=48 hours, ATP luminescence
Method: DLBCL cell lines were grown in exponential growth conditions during the 96 hours of treatment. Cells were treated twice: at t=0 and t=48 hours, and cell viability was determined by ATP quantification using a luminescent method ([…]-GLO, Promega, Madison, Wis.). Cell viability in drug-treated cells was normalized to vehicle controls (fractional viability) and results are given as 1-fractional viability.
Experiments were Performed in Triplicate.

| Ki (MALT1) | GI50 (OCI-LY3; Homo sapiens) | GI50 (OCI-LY3) | Compound |
| --- | --- | --- | --- |
| 43 nM | 1440 nM | – | CC(C)(C)[C@H](NC(=O)OCc1ccccc1)C(=O)N1CCC[C@H]1C(=O)N[C@@H](CCCNC(=N)N)C(=O)CF [Compound 103] (Cbz-[Tle]-Pro-Arg-CH2F) |
| 154 nM | 8050 nM | – | N=C(N)NCCC[C@H](NC(=O)[C@@H]1CCCN1C(=O)[C@@H](NC(=O)OCc1ccccc1)c1ccccc1)C(=O)CF [Compound 104] (Cbz-[Phg]-Pro-Arg-CH2F) |
| 55 nM | 4260 nM | – | N=C(N)NCCC[C@H](NC(=O)[C@@H]1CCCN1C(=O)[C@@H](NC(=O)OCc1ccccc1)c1cccnc1)C(=O)CF [Compound 105] |
| 146 nM | 8430 nM | – | N=C(N)NCCC[C@H](NC(=O)[C@@H]1CCCN1C(=O)[C@H](NC(=O)OCc1ccccc1)c1cccnc1)C(=O)CF [Compound 106] |
| 37 nM | 1330 nM | – | N=C(N)NCCC[C@H](NC(=O)[C@@H]1CCCCN1C(=O)[C@@H](NC(=O)OCc1ccccc1)C1CCCCC1)C(=O)CF [Compound 108] (Cbz-[Chg]-[Pip]-Arg-CH2F) |
| – | 9650 nM | – | Cc1nc(C(=O)N[C@H](C(=O)N2CCC[C@H]2C(=O)N[C@@H](CCCNC(=N)N)C(=O)CF)C(C)C)cs1 [Compound 125] |
| – | 3720 nM | – | CC(C)[C@H](NS(=O)(=O)c1ccc(Br)cc1)C(=O)N1CCC[C@H]1C(=O)N[C@@H](CCCNC(=N)N)C(=O)CF [Compound 130] |
| – | 1240 nM | – | CC(C)[C@H](NC(=O)c1ccc(Br)s1)C(=O)N1CCC[C@H]1C(=O)N[C@@H](CCCNC(=N)N)C(=O)CF [Compound 138] |
| – | 14100 nM | – | N=C(N)NCCC[C@H](NC(=O)[C@@H]1CCCN1C(=O)[C@H](Cc1cccnc1)NC(=O)c1ccc(Br)cc1)C(=O)CF [Compound 142] |
| – | 500 nM | – | CC(C)[C@H](NC(=O)c1ccc(Br)c(C#N)c1)C(=O)N1CCC[C@H]1C(=O)N[C@@H](CCCNC(=N)N)C(=O)CF [Compound 146] |
| 64 nM | – | – | CC(C)[C@H](NC(=O)c1ccc(Br)cc1)C(=O)N[C@@H](CO)C(=O)N[C@@H](CCCNC(=N)N)C(=O)CF [Compound 149] |
| 47 nM | – | – | CC(C)[C@H](NC(=O)c1ccc2ccccc2c1)C(=O)N1CCC[C@H]1C(=O)N[C@@H](CCCNC(=N)N)C(=O)CF [Compound 152] |
| – | 270 nM | – | CC(C)c1ccc(C(=O)N[C@H](C(=O)N2CCC[C@H]2C(=O)N[C@@H](CCCNC(=N)N)C(=O)CF)C(C)C)cc1 [Compound 163] |
| 557 nM | – | – | CC(C)[C@H](NC(=O)Nc1cccc(Cl)c1)C(=O)N1CCC[C@H]1C(=O)N[C@H](CCCNC(=N)N)C(=O)CF [Compound 166] |
| 32 nM | – | – | CC(C)[C@H](NC(=O)OCc1ccc(Cl)cc1)C(=O)N1CCC[C@H]1C(=O)N[C@@H](CCCNC(=N)N)C(=O)CF [Compound 168] |
| 22 nM | – | – | CC(C)[C@H](NC(=O)OCc1cccc(Cl)c1)C(=O)N1CCC[C@H]1C(=O)N[C@@H](CCCNC(=N)N)C(=O)CF [Compound 169] |
| 27 nM | – | – | CC(C)[C@H](NC(=O)OCc1ccccc1Cl)C(=O)N1CCC[C@H]1C(=O)N[C@@H](CCCNC(=N)N)C(=O)CF [Compound 170] (ClZ-Val-Pro-Arg-CH2F) |
| – | 60 nM | – | N=C(N)NCCC[C@H](NC(=O)[C@@H]1C[C@@H](O)CN1C(=O)[C@@H](NC(=O)c1ccc(Br)cc1)C1CCCCC1)C(=O)CF [Compound 172] |
| 28 nM | – | – | CC(C)[C@H](NC(=O)c1ccc(Br)cc1)C(=O)N1C[C@H](C#N)C[C@H]1C(=O)N[C@@H](CCCNC(=N)N)C(=O)CF [Compound 177] |
| 38 nM | – | – | CC(C)[C@H](NC(=O)c1ccc(Br)cc1)C(=O)N[C@@H](C)C(=O)N[C@@H](CCCNC(=N)N)C(=O)CF [Compound 178] |
| 122 nM | – | – | N=C(N)NCCC[C@H](NC(=O)[C@@H]1CCCN1C(=O)[C@H](CC1CCCCC1)NC(=O)c1ccc(Br)cc1)C(=O)CF [Compound 187] |
| – | – | > 5000 nM | CC(C)[C@H](NC(=O)OCc1ccccc1)C(=O)N1CCC[C@H]1C(=O)N[C@@H](CCCNC1=NCCN1)C(=O)CF [Compound 201] |
| > 200 nM | – | – | CN[C@H](C(=O)N1CCC[C@H]1C(=O)N[C@@H](CCCNC(=N)N)C(=O)CF)C(C)C [Compound 205] (H-[NMeV]-Pro-Arg-CH2F) |
